Biological target: T1, Human neutrophil elastase (Homo sapiens, UniProt P08246)
T1 construct: purchased ART Biochemicals, Athens, Ga
T1 sequence (P08246 30-267): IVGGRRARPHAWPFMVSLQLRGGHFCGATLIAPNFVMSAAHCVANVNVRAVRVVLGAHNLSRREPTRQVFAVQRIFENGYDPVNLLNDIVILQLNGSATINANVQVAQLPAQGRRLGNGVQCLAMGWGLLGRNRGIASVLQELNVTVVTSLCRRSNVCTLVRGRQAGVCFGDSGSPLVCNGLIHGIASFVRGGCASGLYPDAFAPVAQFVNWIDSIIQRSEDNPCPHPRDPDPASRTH
Assay: Inhibitory selectivity of HCV NS3 protease over elastase (human neutrophil elastase assay)
Type: biochemical
Conditions: IC50 (elastase) divided by IC50 (HCV NS3)
Description: Selectivity of HCV NS3 over elastase can be calculated by dividing IC50 (elastase) over IC50 (HCV NS3). Similarily, selectivity of HCV NS3 over chymotrypsin can be calculated by dividing IC50 (chymotrypsin) over IC50 (HCV NS3).
Human neutrophil elastase was obtained from ART Biochemicals, Athens, Ga. Stock solutions of lyophilized enzyme (1 mg/ml) were prepared in PBS buffer containing 10% glycerol and stored at −20 ° C. Human neutrophil elastase was assayed with the Meo-Suc-Ala-Ala-Pro-Val-p-nitroanilide (Sigma) as a substrate (C. Kettner and A. Shenvi, 1984). The hydrolysis of substrate was monitored at 405 nm on a Hewlett-Packard spectrophotometer.

Row | Compound | Selectivity of HCV NS3 vs. elastase
1 | CC(C)[C@H](NC(=O)c1cnccn1)C(=O)N[C@H](C(=O)N1C[C@H](OCc2ccccc2)C[C@H]1C(=O)N[C@@H](CCc1ccc(C(F)(F)F)cc1)B1OC2CC3CC(C3(C)C)C2(C)O1)C(C)C (stereo partly drawn) [Example 34, (2-pyrazinecarbonyl)-Val-Val-Hyp(OBzl)-(1R)-1-amino-3-(4-trifluoromethyl)phenylpropylboronic acid (+)-pinanediol ester] | 7
2 | H-Asp-Glu-Val-Val-Pro-(1R)-1-amino-3-(1,1′-biphenyl)-4-ylpropylboronic acid (+)-pinanediol ester [Example 11] | >10
3 | H-Asp-Glu-Val-Val-Pro-(1R)-1-amino-3-(3-methyl)phenylpropylboronic acid (+)-pinanediol ester [Example 9] | >10
4 | H-Asp-Glu-Val-Val-Pro-(1R)-1-amino-3-(4-bromo)phenylpropylboronic acid (+)-pinanediol ester [Example 23] | >10
5 | H-Asp-Glu-Val-Val-Pro-(1R)-1-amino-3-(4-chloro)phenylpropylboronic acid (+)-pinanediol ester [Example 22] | >10
6 | H-Asp-Glu-Val-Val-Pro-(1R)-1-amino-3-(4-cyclohexyl)phenylpropylboronic acid (+)-pinanediol ester [Example 19] | >10
7 | H-Asp-Glu-Val-Val-Pro-(1R)-1-amino-3-(4-fluoro)phenylpropylboronic acid (+)-pinanediol ester [Example 16] | >10
8 | H-Asp-Glu-Val-Val-Pro-(1R)-1-amino-3-(4-hydroxy)phenylpropylboronic acid (+)-pinanediol ester [Example 27] | >10
9 | H-Asp-Glu-Val-Val-Pro-(1R)-1-amino-3-(4-isopropyl)phenylpropylboronic acid (+)-pinanediol ester [Example 18] | >10
10 | H-Asp-Glu-Val-Val-Pro-(1R)-1-amino-3-(4-methoxy)phenylpropylboronic acid (+)-pinanediol ester [Example 21] | >10
11 | H-Asp-Glu-Val-Val-Pro-(1R)-1-amino-3-(4-methyl)phenylpropylboronic acid (+)-pinanediol ester [Example 10] | >10
12 | H-Asp-Glu-Val-Val-Pro-(1R)-1-amino-3-(4-phenoxy)phenylpropylboronic acid (+)-pinanediol ester [Example 17] | >10
13 | H-Asp-Glu-Val-Val-Pro-(1R)-1-amino-3-(4-tert-butyl)phenylpropylboronic acid (+)-pinanediol ester [Example 20] | >10
14 | H-Asp-Glu-Val-Val-Pro-(1R)-1-amino-3-(4-trifluoromethyl)phenylpropylboronic acid (+)-pinanediol ester [Example 14] | >10
15 | H-Asp-Glu-Val-Val-Pro-(1R)-1-amino-3-phenylpropylboronic acid (+)-pinanediol ester [Example 3] | >10
16 | H-Asp-Glu-Val-Val-Pro-(1R)-1-amino-5-methylhexylboronic acid (+)-pinanediol ester [Example 36] | >10
17 | H-Asp-Glu-Val-Val-Pro-(1R)-1-amino-5-phenylpentylboronic acid (+)-pinanediol ester [Example 5] | 9

From patent US6939854B2, “Peptide inhibitors of hepatitis C virus NS3 protease” (priority 2000, dated 2005)
